The results in this text go back to ChEMBL document CHEMBL1909046, “DrugMatrix in vitro pharmacology data”.

The IC50 is the concentration that gives 50% inhibition. Broadly, the Ki is the equilibrium dissociation constant of an inhibitor or competing ligand from its target. High values mean a looser hold on the target, low ones a stronger hold on the target.

In series [1] the target is 5-hydroxytryptamine receptor 4 (Cavia porcellus, UniProt O70528). It counts as cell membranes, Dunkin-Hartley, Striatum, Membrane. Note: in other assays of this panel Not Active means under 50% inhibition at 10 µM.
Chain of 5-hydroxytryptamine receptor 4 (O70528 whole entry): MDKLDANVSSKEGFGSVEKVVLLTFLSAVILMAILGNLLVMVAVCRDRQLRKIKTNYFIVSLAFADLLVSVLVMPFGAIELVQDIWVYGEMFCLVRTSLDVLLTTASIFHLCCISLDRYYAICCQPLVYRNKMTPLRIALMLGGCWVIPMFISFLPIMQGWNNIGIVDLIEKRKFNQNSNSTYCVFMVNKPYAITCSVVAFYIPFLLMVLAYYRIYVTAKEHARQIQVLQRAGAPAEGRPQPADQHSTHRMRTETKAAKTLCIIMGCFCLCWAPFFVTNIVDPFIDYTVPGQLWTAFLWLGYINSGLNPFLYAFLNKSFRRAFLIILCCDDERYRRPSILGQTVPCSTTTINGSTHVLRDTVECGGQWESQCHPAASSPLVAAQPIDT
Series [2] is described as follows: DRUGMATRIX: Sigma2 radioligand binding (ligand: [3H] Ifenprodil). It counts as cell membranes, Rattus norvegicus, Wistar, Brain, Membrane. The conditions noted are these: Not Active = under 50% inhibition at 10 µM.
For series [3], the target named is T1, Vasoactive intestinal polypeptide receptor 1 (Homo sapiens, UniProt P32241). Note: in other assays of this panel Not Active means under 50% inhibition at 10 µM.
T1 sequence (P32241 whole entry): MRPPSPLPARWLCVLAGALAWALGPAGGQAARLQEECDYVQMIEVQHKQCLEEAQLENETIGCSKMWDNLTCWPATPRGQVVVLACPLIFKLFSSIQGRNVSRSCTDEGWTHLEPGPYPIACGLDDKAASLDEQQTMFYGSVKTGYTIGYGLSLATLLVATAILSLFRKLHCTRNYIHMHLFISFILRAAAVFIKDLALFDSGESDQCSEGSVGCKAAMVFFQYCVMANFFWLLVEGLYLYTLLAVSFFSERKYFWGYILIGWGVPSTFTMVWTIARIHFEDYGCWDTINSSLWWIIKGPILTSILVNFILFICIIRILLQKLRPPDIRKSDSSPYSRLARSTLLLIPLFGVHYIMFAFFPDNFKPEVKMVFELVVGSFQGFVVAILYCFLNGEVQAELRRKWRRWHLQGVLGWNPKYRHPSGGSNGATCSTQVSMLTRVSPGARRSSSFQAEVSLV
It counts as cell membranes, Membrane. The conditions noted are these: ht-29.

A further series deals with Mu-type opioid receptor (Homo sapiens, UniProt P35372). As to the kind of experiment: DRUGMATRIX: Opiate mu (OP3, MOP) radioligand binding (ligand: [3H] Diprenorphine). It counts as cell membranes, CHO-K1, Membrane. The conditions noted are these: Not Active = under 50% inhibition at 10 µM.
Chain of Mu-type opioid receptor (P35372 whole entry): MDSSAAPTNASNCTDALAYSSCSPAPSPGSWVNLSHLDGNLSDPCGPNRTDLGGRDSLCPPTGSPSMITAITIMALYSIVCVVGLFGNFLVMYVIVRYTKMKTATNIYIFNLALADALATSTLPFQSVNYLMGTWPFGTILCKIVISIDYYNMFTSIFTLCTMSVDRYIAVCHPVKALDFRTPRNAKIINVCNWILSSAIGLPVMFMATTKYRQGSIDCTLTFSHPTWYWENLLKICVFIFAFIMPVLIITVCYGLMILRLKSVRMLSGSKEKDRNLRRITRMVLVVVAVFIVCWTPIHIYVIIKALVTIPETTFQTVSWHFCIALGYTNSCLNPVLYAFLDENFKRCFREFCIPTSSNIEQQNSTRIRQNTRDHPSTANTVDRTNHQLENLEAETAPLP
Series [4] has as its target Epidermal growth factor receptor (Homo sapiens, UniProt P00533). As to the kind of experiment: DRUGMATRIX: Protein Tyrosine Kinase, EGF Receptor enzyme inhibition (substrate: Poly(Glu:Tyr)). Type of series: cell-based, Insect cells. The conditions noted are these: Not Active = under 50% inhibition at 10 µM.
The next series has as its target Cytochrome P450 3A4 (Homo sapiens, UniProt P08684). The conditions noted are these: bti-tn-5b1-4. Note: in other assays of this panel Not Active means under 50% inhibition at 10 µM.

Chain of Cytochrome P450 3A4 (P08684 whole entry): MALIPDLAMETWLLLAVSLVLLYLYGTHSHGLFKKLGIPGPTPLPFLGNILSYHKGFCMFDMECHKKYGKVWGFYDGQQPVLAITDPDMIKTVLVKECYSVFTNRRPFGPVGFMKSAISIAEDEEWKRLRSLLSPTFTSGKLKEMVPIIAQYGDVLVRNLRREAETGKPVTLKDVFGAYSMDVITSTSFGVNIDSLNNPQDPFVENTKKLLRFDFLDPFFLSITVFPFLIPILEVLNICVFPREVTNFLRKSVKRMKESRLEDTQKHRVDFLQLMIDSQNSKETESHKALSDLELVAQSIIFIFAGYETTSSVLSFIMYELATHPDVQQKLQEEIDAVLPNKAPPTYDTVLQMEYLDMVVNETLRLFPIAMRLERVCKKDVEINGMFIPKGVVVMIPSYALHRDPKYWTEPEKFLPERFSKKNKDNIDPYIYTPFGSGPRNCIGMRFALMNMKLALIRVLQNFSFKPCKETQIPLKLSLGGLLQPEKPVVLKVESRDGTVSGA

Turning to `CCOc1nc2cccc(C(=O)O)c2n1Cc1ccc(-c2ccccc2-c2nnn[nH]2)cc1`, the IC50 entry was “Not Active” in series [1]; “Not Active” in series [2]; “Not Active” in series [3]; “Not Active” on Mu-type opioid receptor (cho-k1); 3.28 µM in series [4] (read-out: IC50). Moreover, in series [2], the Ki result was “Not Active”.

`Cc1c(O)cccc1C(=O)N[C@@H](CSc1ccccc1)[C@H](O)CN1C[C@H]2CCCC[C@H]2C[C@H]1C(=O)NC(C)(C)C`: the IC50 result was “Not Active” in series [1]; “Not Active” in series [2]; “Not Active” in series [3]; 14.4 µM on Mu-type opioid receptor (read-out: IC50); 55.6 µM in series [4] (read-out: IC50). Moreover, the results for the Ki result (in series [2]; at Mu-type opioid receptor) were “Not Active” and 5.86 µM, respectively.

As to `NC12CC3CC(CC(C3)C1)C2` [AMANTADINE], the IC50 result (in series [1]; in series [2]; in series [3]; on Mu-type opioid receptor (cho-k1); in series [4] (insect cells)) was “Not Active” throughout. In series [2], the Ki entry is on record as “Not Active”.

For `CC(C)c1c(C(=O)Nc2ccccc2)c(-c2ccccc2)c(-c2ccc(F)cc2)n1CC[C@@H](O)C[C@@H](O)CC(=O)O` [ATORVASTATIN], the IC50 entry (in series [1]; in series [2]; in series [3]; on Mu-type opioid receptor (cho-k1); in series [4] (insect cells)) was “Not Active” in each case. Further, in series [2], the Ki result was “Not Active”.

As for `COc1cc(OC)c(C(=O)CCCN2CCCC2)c(OC)c1` [BUFLOMEDIL], the IC50 entry (in series [1]; in series [2]; in series [3]; on Mu-type opioid receptor (cho-k1); in series [4] (insect cells)) was “Not Active” throughout. Moreover, in series [2], the Ki entry is listed as “Not Active”.

For `Cn1c(=O)c2c(ncn2C)n(C)c1=O` [CAFFEINE], the IC50 result (in series [1]; in series [2]; in series [3]; on Mu-type opioid receptor (cho-k1); against Cytochrome P450 3A4) was “Not Active” throughout. The Ki entry (in series [2]; on Cytochrome P450 3A4) was “Not Active” each time.

For `O=c1c(-c2ccc(O)cc2)coc2cc(O)cc(O)c12` [GENISTEIN], the IC50 entry (in series [1]; in series [2]; in series [3]; on Mu-type opioid receptor (cho-k1); on Cytochrome P450 3A4) was “Not Active” in each case. Besides, the Ki entry (in series [2]; at Cytochrome P450 3A4) was “Not Active” throughout.

In the case of `C[C@]12CC[C@H]3[C@@H](CCC4=CC(=O)CC[C@@H]43)[C@@H]1CC[C@@H]2O` [NANDROLONE], the half-maximal inhibitory concentration (IC50) entry (in series [1]; in series [2]; in series [3]; in series [4] (insect cells); against Cytochrome P450 3A4) was “Not Active” in each case. The Ki result (in series [2]; on Cytochrome P450 3A4) was “Not Active” in each case.

With `C[C@@H]1O[C@@H](O[C@H]2C[C@@H](O)[C@]3(CO)[C@H]4[C@H](O)C[C@]5(C)[C@@H](C6=CC(=O)OC6)CC[C@]5(O)[C@@H]4CC[C@]3(O)C2)[C@H](O)[C@H](O)[C@H]1O` [OUABAIN], the IC50 result (in series [1]; in series [2]; in series [3]; in series [4] (insect cells); at Cytochrome P450 3A4) was “Not Active” in each case. Moreover, the Ki result (in series [2]; at Cytochrome P450 3A4) was “Not Active” throughout.

Turning to COBALTOUS CHLORIDE, the IC50 entry (in series [1]; in series [2]; in series [3]; in series [4] (insect cells); on Cytochrome P450 3A4) was “Not Active” throughout. The Ki result (in series [1]; in series [2]; in series [3]; in series [4] (insect cells); on Cytochrome P450 3A4) was “Not Active” in each case.

Turning to COLISTIN, the IC50 entry in series [1] is “Not Active”; in series [2], “Not Active”; in series [3], “Not Active”; in series [4] (insect cells, read-out: IC50), 1.5 µM; against Cytochrome P450 3A4, “Not Active”. The inhibition constant (Ki) result (in series [1]; in series [2]; in series [3]; on Cytochrome P450 3A4) was “Not Active” in each case.
